Source: US20070099929A1, “Substituted thiophenes” (AiCuris GmbH & Co. KG, priority 2003, published 2007)

Tested on: HCV replicon HuH5-2
Assay: Cellular HCV-RNA replication assay (replicon system), luciferase reporter, with Alamar Blue cytotoxicity test
Assay type: cell-based, hepatitis C virus
Conditions: for SI (selectivity index) = CC50/EC50: CC50 from Alamar Blue fluorescence, EC50 from luciferase activity, HuH5-2 cells; for EC50: Hepatitis C virus, Huh-5-2, HuH5-2 replicon cells, substance concentration with which the luciferase activity decreases by 50% compared with the untreated replicon control, incubation 4-5 days
From the text: 1. Measurement of the Activity of Substances in a Cellular HCV-RNA Replication Assay (“Replicon System”)
Hepatitis C cannot as of yet be replicated reproducibly with high titres in cell culture. The activity of substances is therefore detected in the so-called replicon system. This comprises parts of the HCV genome or complete HCV genomes which are transferred into cell lines (here HuH-7 cells) of human origin. It is possible by insertion of a selection marker to obtain stable cell lines which, under selection pressure, replicate genomic or subgenomic RNA of HCV [Lohmann et al., Science 285, 110-113 (1999); Blight et al., Science 290, 1972-1974 (2000)]. The HuH5-2 cells used here harbour a selectable, luciferase-carrying, cell culture-adapted replicon as described in EP 1 043 399. The cells are cultured in Dulbecco's modified […] medium (DMEM) with 10% fetal calf serum (FCS), 1% Pen/Strep, 1% NEAA, 1% L-glutamine and 250 μg/ml Geneticin (G418). To carry out the assays described below, the cells are initially trypsinized and resuspended with the DMEM medium described above without G418. Depending on the assay, the cells are seeded in 24-well or 384-well plates. Depending on the reading or assay method used, transparent or white assay plates coated for cell culture are used.
The test compounds are made up as 50 mM stock solution in DMSO. To determine the EC50 values, the substances subsequently undergo a serial two-fold dilution in DMEM. The dilutions are transferred as doublets to the cell culture plates. The trypsinized cells which have been resuspended in medium are then added. The final concentration of the test substances in the cell culture wells is for example 300 μM to 0.0001 μM. Interferon-alpha serves as reference substance in concentrations of 60 IU/ml to 1 IU/ml. Antimycin-alpha serves as cytotoxicity control in concentrations of 2 μM to 0.03,M. Untreated cells serve as reference. The plates are then incubated at 37° C. under 5% CO2 for 4-5 days. The various measurements and the quantification of the HCV replicon RNA then take place.
Alamar Blue is a water-soluble redox indicator which is reduced as a function of the metabolic activity of the cells to be investigated. The Alamar Blue test is used as quantitative cytotoxicity assay. For this purpose, the cells are seeded with the appropriate test substances (see above) in white 384-well cell culture plates and incubated correspondingly at 37° C. under 5% CO2 for 4 days. 4 to 6 hours before the actual measurement, 5 μl of Alamar Blue are added per well. The fluorescence is then measured at an […]. If this test is to be followed by chemiluminescence measurement (see below) on the same plate, the dye solution is aspirated off from the cells and the latter are subsequently washed once with PBS. The PBS is likewise aspirated off again from the cells.
A reporter gene is introduced into the HCV replicon HuH5-2, in this case the gene for the luciferase enzyme of Photinus pyralis. After the addition of the luciferase reagent (20 mM Tris/HCl, 20 mM tricine, 2.67 mM MgSO4, 0.1 mM EDTA, 33.3 mM DTT, 0.27 mM coenzyme A, 0.47 mM luciferin, 0.53 mM ATP, pH 7.8) to the cells, the chemiluminescence is measured in a luminometer. Normally, the photons are measured in a period of from 10 sec to 60 sec.
The following data can be determined from the assay plates: • CC50=substance concentration in μM with which the Alamar Blue fluorescence decreases by 50% compared with the untreated control; • EC50=substance concentration with which the luciferase activity decreases by 50% compared with the untreated replicon control; • SI (selectivity index)=CC50/EC50. […]

Q: With `CC(C)N(C(=O)[C@@H]1CC[C@@H](C)C[C@@H]1O)c1sc(-c2ccccc2)cc1C(=O)O` (single isomer, unassigned) [Example 54] as the molecule, how does the “SI (selectivity index) = CC50/EC50” value read?
A: >277

Q: What about the EC50 of the same molecule?
A: 180 nM

Q: `CC(C)N(c1sc(-c2ccccc2)cc1C(=O)O)C(=O)[C@H]1CC[C@H](C)CC1` [Example 1, 2-[Isopropyl-(trans-4-methylcyclohexanecarbonyl)amino]-5-phenylthiophene-3-carboxylic acid] was tested. Which “SI (selectivity index) = CC50/EC50” value did it give?
A: >50

Q: And the EC50?
A: 1000 nM

Q: Which “SI (selectivity index) = CC50/EC50” value does the source give for `CC(C)N(c1sc(-c2ccc(F)cc2)cc1C(=O)O)C(=O)[C@H]1CC[C@H](C)CC1` [Example 19, 5-(4-Fluorophenyl)-2-{isopropyl[(trans-4-methylcyclohexyl)carbonyl]amino}thiophene-3-carboxylic acid] here?
A: >100

Q: What about the EC50 of the same molecule?
A: 400 nM

Q: `CC(C)N(c1sc(-c2cccnc2)cc1C(=O)O)C(=O)[C@H]1CC[C@H](C)CC1` [Example 30] was tested. Which “SI (selectivity index) = CC50/EC50” value did it give?
A: >38

Q: And the EC50?
A: 1300 nM

Q: What does the source list for `CC(C)N(c1sc(C2CCN(S(C)(=O)=O)CC2)cc1C(=O)O)C(=O)[C@H]1CC[C@H](C)CC1` [Example 35, 2-{Isopropyl[(trans-4-methylcyclohexyl)carbonyl]amino}-5-[1-(methylsulfonyl)piperidin-4-yl]thiophene-3-carboxylic acid]?
A: SI (selectivity index) = CC50/EC50: >18; EC50: 2800 nM

Q: `C[C@H]1CC[C@H](C(=O)N(c2sc(-c3ccccc3)cc2C(=O)O)C2CCOCC2)CC1` [Example 42, 2-[[(trans-4-Methylcyclohexyl)carbonyl](tetrahydro-2H-pyran-4-yl)amino]-5-phenylthiophene-3-carboxylic acid] was tested. Which “SI (selectivity index) = CC50/EC50” value did it give?
A: >100

Q: And the EC50?
A: 500 nM

Q: With `COCC(C)N(C(=O)C1CCC(C)CC1)c1sc(-c2ccccc2)cc1C(=O)O` (centres unmarked) [Example 49] as the molecule, how does the “SI (selectivity index) = CC50/EC50” value read?
A: >63

Q: And the EC50?
A: 800 nM
